Assay results as given in patent EP4574818A1, “ONIUM SALT OF NITROGEN-CONTAINING HETEROARYL COMPOUND AND PEST CONTROL AGENT” (priority 2022, dated 2024).

Columns and labels:
Type in all cases: in vivo
Spodoptera litura = test: Efficacy test against Spodoptera litura (cabbage leaf immersion); conditions: 144 h, 125 ppm by mass, cabbage leaf immersed 30 seconds, second-instar larvae, 25°C, humidity 60%, after six days, read-out: mortality of Spodoptera litura
Protocol: A cabbage leaf was immersed in the diluted solution for 30 seconds. The cabbage leaf was air-dried and then put in a petri dish, followed by leaving five second-instar larvae of Spodoptera litura therein. The petri dish was placed in a thermostatic chamber at a temperature of 25°C and a humidity of 60%. After six days had passed from leaving the larvae, life or death was assessed and the mortality was calculated. The test was repeated twice.

Plutella xylostella = test: Efficacy test against Plutella xylostella (cabbage leaf immersion); conditions: 72 h; 125 ppm by mass; cabbage leaf immersed 30 seconds; second-instar larvae of Plutella xylostella; 25°C, humidity 60%; after three days; read-out: mortality
Protocol: The emulsion (II) was diluted with water at the same dilution ratio as the diluted solution (I), thereby obtaining a diluted solution (II). A cabbage leaf was immersed in each of the diluted solutions for 30 seconds. Each cabbage leaf after immersion was air-dried and then put in a petri dish, followed by leaving five second-instar larvae of Plutella xylostella therein. The petri dishes were placed in a thermostatic chamber at a temperature of 25°C and a humidity of 60%. After three days had passed from leaving the larvae, life or death was assessed and the mortality was calculated. The test was repeated twice.

Mythimna separata = test: Efficacy test against Mythimna separata (treated artificial feed); conditions: 1 µl of emulsion (I) (5% by mass active ingredient) mixed with 0.8 g artificial feed; second-instar larvae; 25°C; after five days
Protocol: (§1) 5 parts by mass of a compound of the present invention, 93.6 parts by mass of dimethylformamide, and 1.4 parts by mass of polyoxyethylene alkyl aryl ether were mixed and dissolved to obtain an emulsion (I) containing 5% by mass of the active ingredient.
0.8 g of commercially-available artificial feed (Insect LFS, manufactured by Nosan Corporation) and 1 µl of the emulsion (I) were mixed well, and then 0.2 g of the mixture per treated area was packed into plastic test containers (each having a capacity of 1.4 ml) as test feeds.
Two second-instar larvae of Mythimna separata were left per treated area, and then the test containers were sealed with plastic covers. The test containers were placed in a thermostatic chamber at 25°C, and, after five days had passed therefrom, the mortality and the feed intake were measured. The test was repeated twice.
In addition, the test was carried out under the same conditions as described above, except that the emulsion (II) was used instead of the emulsion (I), and evaluated as a solvent control area.

Phyllotreta striolata = test: Efficacy test against Phyllotreta striolata (sprayed bok-choy seedling); conditions: 168 h, 125 ppm by mass, sprayed to bok-choy seedling, adults, 25°C, humidity 65%, after seven days, read-out: mortality against the adults of Phyllotreta striolata
Protocol: as §1
The emulsion (I) was diluted with water such that the concentration of the compound of the present invention became 125 ppm by mass. The diluted solution was sprayed to a bok-choy seedling (at the 7th leafe stage) planted in a 3-sun pot. After air-dried, the bok-choy seedling was placed in a plastic cup, and ten adults of Phyllotreta striolata were left therein. The plastic cup was placed in a thermostatic chamber at a temperature of 25°C and a humidity of 65%. After seven days had passed from leaving the adults, life or death was assessed and the mortality was calculated. The test was repeated twice.

[1] = test system: Haemophysalis longicornis; test: Efficacy test against Haemophysalis longicornis (thin film in glass test tube); conditions: 100 µL of 16 ppm by mass isopropanol solution dried as thin film in glass test tube; nymphs; 25°C; after four days; 5760 min
Protocol: The compound of the present invention was dissolved in isopropanol to prepare a drug solution having a concentration of 16 ppm by mass. 100 µL of the drug solution was coated on the inner surface of the bottom of a glass test tube (φ 12 mm), and then isopropanol was vaporized by air-drying to form a thin film of the compound of the present invention. In the test tube, four nymphs of Haemophysalis longicornis were left. The lid was put on the test tube, and the test tube was placed in a thermostatic chamber at 25°C. After four days had passed from leaving the nymphs, life or death of Haemophysalis longicornis was assessed and the mortality was calculated.

Ctenocephalides felis = test: Efficacy test against Ctenocephalides felis (thin film in glass vial); conditions: 96 h, 100 µL of 16 ppm by mass isopropanol solution dried as thin film in glass vial, adults, 25°C, after four days
Protocol: The compound of the present invention was dissolved in isopropanol to prepare a drug solution having a concentration of 16 ppm by mass. 100 µL of the drug solution was coated on the inner surface of the bottom of a glass vial container (φ […]), and then isopropanol was vaporized by air-drying to form a thin film of the compound of the present invention. In the vial container, four adults (a mixture of males and females) of cat flea (Ctenocephalides felis) were left. The lid was put on the vial container, and the vial container was placed in a thermostatic chamber at 25°C. After four days had passed from leaving the adults, life or death of Ctenocephalides felis was assessed and the mortality was calculated.

Row | SMILES | mortality at 125 ppm (Spodoptera litura) | mortality at 125 ppm (Plutella xylostella) | mortality of Mythimna separata or feed intake relative to the feed intake at the solvent control area (Mythimna separata) | mortality at 125 ppm (Phyllotreta striolata) | mortality against Haemophysalis longicornis [1] | mortality at 16 ppm (Ctenocephalides felis)
1 | O=C([N-][n+]1ccccc1)c1cc(Cl)nc(Oc2ccc(OC(F)(F)C(F)(F)F)cc2)c1 [Compound 3] | ≥ 80% | ≥ 80% | 100% mortality of Mythimna separata or 10% or less of the feed intake | ≥ 80% | – | –
2 | O=C([N-][n+]1ccccc1)c1cc(Cl)nc(Oc2ccc(OC(F)(F)F)cc2)c1 [Compound 175, (2-chloro-6-(4-(trifluoromethoxy)phenoxy)isonicotinoyl)(pyridin-1-ium-1-yl)amide] | ≥ 80% | ≥ 80% | 100% mortality of Mythimna separata or 10% or less of the feed intake | ≥ 80% | ≥ 80% | ≥ 80%
3 | O=C([N-][n+]1cccc(F)c1)c1cc(Cl)nc(Oc2ccc(OC(F)(F)F)cc2)c1 [Compound 1] | ≥ 80% | ≥ 80% | 100% mortality of Mythimna separata or 10% or less of the feed intake | ≥ 80% | – | ≥ 80%
4 | CCn1c[n+]([N-]C(=O)c2cc(Cl)nc(Oc3ccc(OC(F)(F)C(F)(F)F)cc3)c2)cn1 [Compound 10] | ≥ 80% | ≥ 80% | – | ≥ 80% | – | ≥ 80%
5 | O=C([N-][n+]1cccc(F)c1)c1cc(Cl)nc(Oc2ccc(OC(F)(F)C(F)(F)F)cc2)c1 [Compound 7] | ≥ 80% | ≥ 80% | – | – | – | ≥ 80%
